The text below walks through data of patent publication US10179790B2 (THOMAS HELLEDAYS STIFTELSE FOR MEDICINSK FORSKNING, priority 2014, dated 2019).

Some results are limits rather than exact numbers.

The term IC50 denotes the concentration needed to halve the response being measured.

One assay concerns the target MTH1 (Homo sapiens, UniProt P36639). Briefly: MTH1 enzymatic assay and IC50 value determination (malachite green, 96- and 384-well format). The class given is biochemical. The conditions noted are these: hydrolysis of dGTP (100 μM), MTH1 6 nM, pyrophosphatase-coupled malachite green, 15 minutes at 22° C. A digest of the protocol: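 MTH1 (6 nM) hydrolysed dGTP (100 μM) for 15 min at 22 °C in Tris-acetate buffer with Mg2+, DTT, Tween 20 and excess pyrophosphatase, 1% DMSO. Pi detected with malachite green at 630 nm. IC50 from nonlinear 4-parameter fit of 11–12-point dilution series.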

In a further assay the test system is cancer cell. Nature of the assay: Cell viability assay (resazurin). The settings on record: 72 h; 3 days with compound, resazurin fluorescence; cell line not named. The class given is cell-based. The procedure, abridged: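 Cells in DMEM GlutaMAX or line-appropriate medium are exposed to compound for 3 days at 37 °C, 5% CO2. Viability is read as resazurin fluorescence (Ex544/Em590) after 2 h incubation. In the 384-well format, cells are seeded onto 11 pre-dispensed concentrations (final DMSO <1%) and read after 3 h resazurin.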
In general terms: Alamar Blue is a resazurin reagent that responds to reducing activity.

Consider `COCCNS(=O)(=O)c1ccc(CCNc2cc(-c3cccc(Cl)c3C)nc(N)n2)cc1` [Example 208, 4-(2-{[2-amino-6-(3-chloro-2-methylphenyl)pyrimidin-4-yl]amino}ethyl)-N-(2-methoxyethyl)benzene-1-sulfonamide], for which the IC50 at MTH1 was less than 200 nM; with cancer cell it was less than 500 nM.
As to `Cc1c(Cl)cccc1-c1cc(NCCc2ccc(S(=O)(=O)NC3COC3)cc2)nc(N)n1` [Example 209, 4-(2-{[2-amino-6-(3-chloro-2-methylphenyl)pyrimidin-4-yl]amino}ethyl)-N-(oxetan-3-yl)benzene-1-sulfonamide], the IC50 at MTH1 was less than 200 nM; with cancer cell, less than 500 nM.
For `Cc1c(Cl)cccc1-c1cc(NCCc2ccc(S(=O)(=O)NC3CCOCC3)cc2)nc(N)n1` [Example 210, 4-(2-{[2-amino-6-(3-chloro-2-methylphenyl)pyrimidin-4-yl]amino}ethyl)-N-(oxan-4-yl)benzene-1-sulfonamide] the same measures were less than 200 nM and less than 500 nM.
For the compound `C#CCN(C)C(=O)c1ccc(CCNc2cc(-c3cccc(Cl)c3C)nc(N)n2)cc1` [Example 211, 4-(2-{[2-amino-6-(3-chloro-2-methylphenyl)pyrimidin-4-yl]amino}ethyl)-N-methyl-N-(prop-2-yn-1-yl)benzamide], the IC50 against MTH1 is less than 200 nM; in the assay on cancer cell, less than 500 nM.
`C#Cc1ccc(CCNc2cc(-c3cccc(Cl)c3C)nc(N)n2)cc1` [Example 212, 6-(3-chloro-2-methylphenyl)-N4-[2-(4-ethynylphenyl)ethyl]pyrimidine-2,4-diamine]: the IC50 on MTH1 is less than 200 nM; in the assay on cancer cell, less than 500 nM.
Taken in the same sequence, the figures for `Cc1c(Cl)cccc1-c1cc(NCCOc2ccc(S(N)(=O)=O)cn2)nc(N)n1` [Example 213, 6-(2-(2-amino-6-(3-chloro-2-methylphenyl)pyrimidin-4-ylamino)ethoxy)pyridine-3-sulfonamide] were less than 200 nM and less than 500 nM.
Consider `Cc1c(Cl)cccc1-c1cc(NCCOc2ccc(S(C)(=O)=O)cn2)nc(N)n1` [Example 214, 6-(3-Chloro-2-methylphenyl)-N4-(2-(5-(methylsulfonyl)pyridin-2-yloxy)ethyl)pyrimidine-2,4-diamine], for which the IC50 was less than 200 nM at MTH1 and less than 500 nM in the assay with cancer cell.
